From a melting point compilation (Tetko et al.; mined from patent text by program, amines drawn as free bases though some values may be those of a salt)

SMILES	melting point [°C]
O=C1CC(c2cccc(-n3cncn3)c2)=Nc2ccc(-c3ccc(F)cc3)cc2N1	241 to 245
CSc1onc(-c2ccccc2)c1-c1ccc(S(N)(=O)=O)cc1	135 to 137
CCCc1n[nH]c2c(=O)[nH]c(-c3cc(S(=O)(=O)N4CCN(C)CC4)ccc3OCC)nc12	236 to 239
COc1ccc2c(c1)C(=O)C(Cc1cccc(NS(=O)(=O)C(F)(F)F)c1)CC2 (stereo unspecified)	152 to 154
CCOC(=O)Cc1ccc(-n2cccn2)cc1	49
O=C(Nc1cccc(-c2ccnc3c(C(=O)c4ccco4)cnn23)c1)c1ccccc1	220 to 222
CC[C@H](C)CNC(=O)[C@@H](C[C@H](O)[C@H](CC1CCCCC1)NC(=O)[C@H](Cc1cscn1)NC(=O)[C@@H](CC(=O)N1CCOCC1)Cc1ccccc1)C(C)(C)O	80 to 82
O=C(Cc1ccc(Cl)cc1)N1CCC2(CC1)Cc1ccccc1O2	108 to 110
O=C1C(CCO)Oc2cc([N+](=O)[O-])ccc2N1Cc1ccccc1[N+](=O)[O-] (stereo unspecified)	139 to 143
C=CC[C@@H](N[S@](=O)C(C)(C)C)c1cc(F)cc(C#N)c1	38 to 40
CC(C)COC(=O)COC(=O)CON1CC(NC(=O)OCc2ccccc2)C1=O (stereo unspecified)	90 to 92
NC(=O)c1ccc(Cl)c([N+](=O)[O-])c1N1CC1	216
O=C(Cc1cccs1)c1c(O)sc2ccccc12	99 to 101
Cc1ccc(N2C(=O)C3=C(SCCO3)C2OC(=O)N2CCN(C)CC2)nc1 (stereo unspecified)	183
COc1cccc(NC(=O)C(C)(C)C)c1C(C)O (stereo unspecified)	159
N#Cc1c(N2CCNCC2)c2cc(Cl)ccc2n(Cc2ccccc2)c1=O	156
COc1ccc(-c2cc(Nn3cnnc3)ccc2C#N)cc1	176 to 177
CCOC(=O)c1ccc(NCCCCCCOc2ccccc2)cc1	105 to 108
COc1ccc(C(=O)/C=C/c2ccc3c(c2)OCO3)c(OC)c1	137
CCCC(C(N)=O)n1cc(C)c(-c2ccccc2)n1 (stereo unspecified)	116 to 118
N[C@@H](Cc1cccc(C(F)(F)F)c1)[C@H](O)c1ccc(F)cc1 (racemic)	76 to 77
COc1ccccc1N1CCN(CCCCN2CSCC2=O)CC1	80 to 81
COC(=O)CC(=O)NC1CCCCC1	77 to 78
CC1CN(c2c(F)cc3c(=O)c(C(=O)O)cn(C(C)C)c3c2F)CCN1 (stereo unspecified)	217 to 218

SMILES	melting point [°C]
CSc1ccc(-c2c(NN)nc(NN)nc2-c2ccccc2)cc1	207 to 210
CC(C)C[C@H](O)C(=O)N[C@@H](C)C(=O)N[C@@H]1C(=O)NCCS[C@@H]1c1ccccc1	93 to 99
COc1cc(CCCCN(C)Cc2ccc(OC)c(OC)c2)ccc1NC(=O)c1cccc2c(=O)c3cccc(OC)c3[nH]c12	114 to 115
Cc1cnc(I)nc1Oc1cc(C(F)(F)F)nn1C	94
Nc1cccc(S(=O)(=O)NC(=O)C(F)(F)F)c1	106 to 108
CCCN(c1nc(-c2ccc(OC)cc2Cl)c(C)s1)c1cc(-c2ccccc2C)ccc1OC	55
COc1ccc2[nH]c(=O)c3cccn3c2n1	250
CC1(C)CC(NS(C)(=O)=O)c2ccccc21 (stereo unspecified)	117 to 119
CC1=C(C(=O)OC(C)(C)C)C(c2ccccc2Br)C(C(=O)OC(C)(C)C)=C(C)N1	162 to 164
O=C(O)CN1C(=O)C(=CC=Cc2cccc(-c3ccccc3)c2)SC1=S	232 to 237
Cc1cc(Oc2ccccc2C(F)(F)F)nn1C(=O)Nc1ccccc1	87 to 89
COc1ccc(-c2c(C)cc3c(O)cc(C)nn23)c(Cl)c1	196 to 198
CCCCc1ccc(NC=O)c([N+](=O)[O-])c1	72 to 73
CS(=O)c1ccc(-n2cnc(-c3ccc(F)cc3)c2-c2ccncc2)cc1 (stereo unspecified)	202 to 203
Cc1ccc(C)c(C(CO)c2ccc(C(C)C)cc2)c1O (stereo unspecified)	88 to 89
COC=C(C(=O)OC)c1csc2ccc(COc3ccccc3)cc12	130
CS(=O)c1csc(C(=O)C2C(=O)N(C(N)=O)c3ccc(Cl)cc32)c1 (stereo unspecified)	204 to 206
COc1ccc(OC)c2cc3c(cc12)C1OC3C2=C1CCC(C(C)=O)C2 (stereo unspecified)	167 to 168
Cn1nc(C(=O)O)cc1OCCCN1CCN(c2cccc3sccc23)CC1	114 to 118
CC(=Cc1ccc2ccccc2c1)c1ccc(C(=O)O)cc1	238
CCCc1ccc2oc(CCc3ccc(OC)cc3)c(C)c2c1O	77 to 79
CCOC(=O)/C=C/c1cnc(Cl)nc1	125 to 127
CCn1ncc2c(Cl)c(C#N)cnc21	100 to 102
CCCCCc1ccc(CCc2ccc(-c3ccc(OC(F)(F)F)cc3)cc2)cc1	60

SMILES	melting point [°C]
COc1ccc(S(=O)(=O)N(CC(N)=O)c2ccc(C)cc2Cc2ccccc2Cl)cc1OC	141
c1cn(CC2(CCCC3CCCC3)SCCS2)cn1	136 to 137
c1coc(C2=NOCCS2)c1	147 to 150
CN(C)CCc1c(CSc2ccccc2)c2ccccc2n1C	58 to 60
CCCCCOC(=O)c1cc(O)nn1-c1ncccc1Cl	172 to 173
CCOc1ccc(CC(=O)NCCc2ccc(OC(C)C)c(OC(C)C)c2)cc1OCC	71
CCNc1cccnc1N1CCN(C(=O)c2ccc(C(=O)NCCO)cn2)CC1	178 to 180
CCN1CCN(S(=O)(=O)c2ccc(C(CC3CCCC3)C(=O)Nc3nc4ccc(OC)nc4s3)cc2)CC1 (stereo unspecified)	106 to 110
OC(CNCCC1c2ccccc2COc2ccccc21)COc1ccccc1 (stereo unspecified)	136 to 138
Cc1cccc(NC(=O)NC2N=C(c3ccccc3F)c3ccccc3N(CC(=O)NC3C4CC5CC(C4)CC3C5)C2=O)c1 (stereo unspecified)	245 to 246
CCN(C)CCc1[nH]c2ccccc2c1CSc1ccccc1	77 to 79
CC(C)(CCC(F)(F)C(F)(F)C(F)(F)C(F)(F)C(F)(F)C(F)(F)C(F)(F)C(F)(F)F)OC(=O)N1CCC(C(=O)O)CC1	140 to 142
CC(C)(NC(=O)CCn1cncc1C=O)c1ccc(Cl)cc1	127 to 129
Cc1cc(-n2ccnc2)c2cccc(OCc3c(Cl)ccc(S(=O)(=O)N4CCC[C@H]4C(=O)NCC4CCN(CC(=O)OC(C)(C)C)CC4)c3Cl)c2n1	100
COc1cccc2cc(C(=O)c3ccc(Cl)c(N)c3)oc12	180
Cc1ccc(-n2c(-c3ccc(Br)cc3)nc3c4ccccc4c4ccccc4c32)cc1	236
Cc1ncccc1COc1ccc2cc(Cn3cc(CCC(=O)O)c(-c4ccccc4)c3)ccc2c1	163 to 164
COc1ccc(C=C(C(=O)C2CC2)C(=O)C2CC2)cc1	60.5 to 61.5
O=C1Cc2cccc(Oc3ccccc3)c2O1	60 to 61
O=c1ccn(-c2ccc(Cl)cc2)nc1-c1ccnn1-c1ccccc1	219 to 220
Cc1cc2nc3ccccc3sc-2c(Cl)c1=O	206
CCc1cc(C#N)cc(C(=O)Nc2ccc(F)cn2)n1	184
O=C(NC1CCCCC1)N1CCC(c2cn(C(=O)NC3CCCCC3)cn2)CC1	166
